Measurements from article PMC5923171, “Novel Zinc-Attenuating Compounds as Potent Broad-Spectrum Antifungal Agents with In Vitro and In Vivo Efficacy” (Antimicrobial Agents and Chemotherapy, 2018).

Legend:
[1] = tested on: HepG2 cells; assay: Human hepatocyte (HepG2) proliferation assay; assay type: cell-based; conditions: for EC50: 24 h exposure, XTT
Protocol: In each well of a 96-well tissue culture plate (GR-655180; Grenier), 10,000 human hepatocytes (HepG2) (85011430; […] Sigma]) supplemented with 2 mM L-[…]-020-1B; Biological Industries), 1% nonessential amino acids (XC-[…]/100; Biosera), and 10% fetal bovine serum (BI-04-007-1A; Biological Industries), and plates were incubated overnight at 37°C and 5% CO2. […] The plate was incubated for a further 24 h or 72 h at 37°C and 5% CO2. The medium was then replaced with 100 μl of freshly prepared 2,3-bis-(2-methoxy-4-nitro-5-sulfophenyl)-2H-tetrazolium-5-carboxanilide salt (XTT) sodium salt solution (0.5 mg/ml of XTT; […]; Sigma) in RPMI 1640 ([…]; Sigma-Aldrich) with 3.83 μg/ml of phenazine methosulfate ([…]; Sigma-Aldrich) and incubated 2 to 3 h at 37°C and 5% CO2 ([43]). The color reaction was measured on Victor X5 plate reader (Perkin-Elmer) at OD450, and the half-maximal effective concentration (EC50) was calculated. Tamoxifen (85256; Sigma) was used as a positive-control compound.

[2] = tested on: A. fumigatus; conditions: combination with amphotericin B lipid complex (ABLC), compared with either agent alone; cited from earlier work
[3] = tested on: invasive pulmonary aspergillosis; design: method as in PMID 26438863; conditions: after 7 days, compared to vehicle treatment; cited from earlier work
[4] = tested on: A. fumigatus; design: method as in PMID 27401578; conditions: cited from earlier work
[5] = tested on: A. fumigatus AF721 (ΔzrfA ΔzrfB ΔzrfC); assay: Growth capacity in sRPMI medium, 24-well plates; assay type: cell-based, Aspergillus fumigatus

Question: For `O=C(O)CN(CCN(CC(=O)O)CC(=O)O)CC(=O)O` [EDTA], which “effect on the proliferation of HepG2 cells (in words)” value [1] is on record?
Answer: The value was “did not affect the proliferation of HepG2 cells”.

Question: What about the EC50 [1] of the same molecule?
Answer: Its EC50 is >29 µg/mL.

Question: What about the “survival times and tissue burden” value [2] of the same molecule?
Answer: Its value is “improved survival times and a lower tissue burden of A. fumigatus”.

Question: What does the source list for `c1ccc(CN(CCN(Cc2ccccn2)Cc2ccccn2)Cc2ccccn2)nc1` [TPEN, N,N,N’,N’-tetrakis(2-pyridylmethyl)-ethylenediamine]?
Answer: survival [3]: significantly increase survival; survival times ([4]; in combination with caspofungin, compared to either drug alone, murine models of invasive aspergillosis): significantly increased survival times; survival and fungal burden ([4]; monotherapy): significant improvements in survival with concomitant reduction in fungal burden

Question: What does the source list for `Cc1cc(O)n(-c2cc(N3CC[C@H](Oc4cnccc4C#N)C3)ncn2)n1` [ZAC989, 3-[(3S)-1-[6-(5-hydroxy-3-methyl-pyrazol-1-yl)pyrimidin-4-yl]pyrrolidin-3-yl]oxy-pyridine-4-carbonitrile]?
Answer: EC50 [1]: >36 µg/mL; growth capacity in the presence of 50 μM zinc (in words) [5]: noticeably inhibited the growth capacity of AF721
